Experiments:
Assay in all cases: biochemical
Parameters in all cases: KINOMEscan active-site competition binding panel (468 kinase assays), per cent of control at 1000 nM
Conditions in all cases: KINOMEscan per cent of control (binding competition); read-out: Percent Control
[1] = molecular target: T1, MRCKA (Homo sapiens, UniProt Q5VT25)
T1 construct: gene CDC42BPA
Description: (§1) Figure S7 / Percent Control

[2] = molecular target: FGFR3 (Homo sapiens, UniProt P22607)
Description: as §1

[3] = molecular target: PIM1 (Homo sapiens, UniProt P11309)
Description: as §1

[4] = molecular target: PLK3 (Homo sapiens, UniProt Q9H4B4)
Description: as §1

[5] = molecular target: CSNK1G1 (Homo sapiens, UniProt Q9HCP0)
Description: as §1

[6] = molecular target: PDGFRB (Homo sapiens, UniProt P09619)
Description: as §1

[7] = molecular target: MKNK1 (Homo sapiens, UniProt Q9BUB5)
Description: as §1

[8] = molecular target: T2, CDC2L2 (Homo sapiens, UniProt Q9UQ88)
T2 construct: gene CDK11A
Description: as §1

[9] = molecular target: PIP5K1C (Homo sapiens, UniProt O60331)
Description: as §1

[10] = molecular target: FYN (Homo sapiens, UniProt P06241)
Description: as §1

[11] = molecular target: AKT3 (Homo sapiens, UniProt Q9Y243)
Description: as §1

[12] = molecular target: T3, SNARK (Homo sapiens, UniProt Q9H093)
T3 construct: gene NUAK2
Description: as §1

[13] = molecular target: MAP3K3 (Homo sapiens, UniProt Q99759)
Description: as §1

[14] = molecular target: T4, ASK1 (Homo sapiens, UniProt Q99683)
T4 construct: gene MAP3K5
Description: as §1

[15] = molecular target: CSF1R-autoinhibited (Homo sapiens, UniProt P07333)
Description: as §1

[16] = molecular target: RIPK1 (Homo sapiens, UniProt Q13546)
Description: as §1

[17] = molecular target: T5, ABL1(H396P)-nonphosphorylated (Homo sapiens, UniProt P00519, H396P)
T5 construct: nonphosphorylated
Description: as §1

[18] = molecular target: PRKCE (Homo sapiens, UniProt Q02156)
Description: as §1

[19] = molecular target: RET(V804M) (Homo sapiens, UniProt P07949, V804M)
Description: as §1

[20] = molecular target: EPHA6 (Homo sapiens, UniProt Q9UF33)
Description: as §1

[21] = molecular target: LIMK2 (Homo sapiens, UniProt P53671)
Description: as §1

[22] = molecular target: T6, DRAK2 (Homo sapiens, UniProt O94768)
T6 construct: gene STK17B
Description: as §1

[23] = molecular target: T7, PRKR (Homo sapiens, UniProt P19525)
T7 construct: gene EIF2AK2
Description: as §1

[24] = molecular target: TGFBR2 (Homo sapiens, UniProt P37173)
Description: as §1

[25] = molecular target: T8, NDR1 (Homo sapiens, UniProt Q15208)
T8 construct: gene STK38
Description: as §1

T6 sequence (O94768 whole entry): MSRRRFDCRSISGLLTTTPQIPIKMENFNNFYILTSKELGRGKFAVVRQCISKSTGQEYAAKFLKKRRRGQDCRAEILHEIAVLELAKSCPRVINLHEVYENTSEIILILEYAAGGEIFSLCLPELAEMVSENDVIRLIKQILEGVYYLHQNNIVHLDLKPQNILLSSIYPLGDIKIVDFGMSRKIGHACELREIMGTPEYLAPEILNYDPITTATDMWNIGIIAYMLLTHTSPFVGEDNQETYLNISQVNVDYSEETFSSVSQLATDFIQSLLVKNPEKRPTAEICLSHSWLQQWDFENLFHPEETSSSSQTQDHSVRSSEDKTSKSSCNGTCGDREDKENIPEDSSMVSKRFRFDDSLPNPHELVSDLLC
Sequence of EPHA6 (Q9UF33 whole entry): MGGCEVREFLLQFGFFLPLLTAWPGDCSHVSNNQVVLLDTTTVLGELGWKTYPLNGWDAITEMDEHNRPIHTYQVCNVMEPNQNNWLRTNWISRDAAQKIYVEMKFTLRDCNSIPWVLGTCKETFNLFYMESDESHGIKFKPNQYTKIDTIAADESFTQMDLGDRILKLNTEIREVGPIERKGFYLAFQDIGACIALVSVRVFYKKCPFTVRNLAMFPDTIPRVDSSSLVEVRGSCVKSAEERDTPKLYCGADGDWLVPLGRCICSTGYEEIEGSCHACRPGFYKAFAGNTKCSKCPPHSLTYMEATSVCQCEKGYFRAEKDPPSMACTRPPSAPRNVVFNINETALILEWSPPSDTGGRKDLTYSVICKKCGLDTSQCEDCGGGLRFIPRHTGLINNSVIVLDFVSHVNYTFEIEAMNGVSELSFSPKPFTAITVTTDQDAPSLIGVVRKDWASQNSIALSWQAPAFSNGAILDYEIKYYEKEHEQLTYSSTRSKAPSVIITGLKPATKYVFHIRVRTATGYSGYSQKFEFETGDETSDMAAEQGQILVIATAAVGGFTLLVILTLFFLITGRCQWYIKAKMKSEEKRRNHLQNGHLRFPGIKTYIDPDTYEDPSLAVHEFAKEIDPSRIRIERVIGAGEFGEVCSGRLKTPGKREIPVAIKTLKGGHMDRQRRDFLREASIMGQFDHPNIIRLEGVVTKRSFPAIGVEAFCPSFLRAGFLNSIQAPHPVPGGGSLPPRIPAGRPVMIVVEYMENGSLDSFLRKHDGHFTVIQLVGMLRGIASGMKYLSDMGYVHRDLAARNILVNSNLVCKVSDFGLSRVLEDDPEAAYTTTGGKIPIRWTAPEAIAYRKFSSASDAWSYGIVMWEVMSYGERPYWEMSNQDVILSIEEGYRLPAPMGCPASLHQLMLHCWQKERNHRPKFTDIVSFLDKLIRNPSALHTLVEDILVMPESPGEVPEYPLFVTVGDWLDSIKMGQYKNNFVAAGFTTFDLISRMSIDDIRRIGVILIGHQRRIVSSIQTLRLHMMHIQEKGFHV
Sequence of PLK3 (Q9H4B4 whole entry): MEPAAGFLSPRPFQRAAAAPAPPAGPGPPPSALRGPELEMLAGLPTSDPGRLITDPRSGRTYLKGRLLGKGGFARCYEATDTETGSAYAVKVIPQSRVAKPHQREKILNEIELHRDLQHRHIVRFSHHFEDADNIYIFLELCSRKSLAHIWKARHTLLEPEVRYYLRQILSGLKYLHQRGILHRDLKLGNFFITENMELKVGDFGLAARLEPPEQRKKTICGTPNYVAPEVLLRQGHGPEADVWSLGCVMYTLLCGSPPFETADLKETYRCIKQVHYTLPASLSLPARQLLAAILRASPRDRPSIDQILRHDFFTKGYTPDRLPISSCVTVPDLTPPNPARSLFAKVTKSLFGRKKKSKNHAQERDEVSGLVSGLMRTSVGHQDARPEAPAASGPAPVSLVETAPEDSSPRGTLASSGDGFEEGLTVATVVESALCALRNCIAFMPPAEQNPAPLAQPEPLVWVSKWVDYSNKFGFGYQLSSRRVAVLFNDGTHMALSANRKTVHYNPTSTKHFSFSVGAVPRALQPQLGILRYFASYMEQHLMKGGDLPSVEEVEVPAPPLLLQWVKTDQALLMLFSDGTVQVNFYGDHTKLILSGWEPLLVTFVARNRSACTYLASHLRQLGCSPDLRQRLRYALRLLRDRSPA
Sequence of CSNK1G1 (Q9HCP0 whole entry): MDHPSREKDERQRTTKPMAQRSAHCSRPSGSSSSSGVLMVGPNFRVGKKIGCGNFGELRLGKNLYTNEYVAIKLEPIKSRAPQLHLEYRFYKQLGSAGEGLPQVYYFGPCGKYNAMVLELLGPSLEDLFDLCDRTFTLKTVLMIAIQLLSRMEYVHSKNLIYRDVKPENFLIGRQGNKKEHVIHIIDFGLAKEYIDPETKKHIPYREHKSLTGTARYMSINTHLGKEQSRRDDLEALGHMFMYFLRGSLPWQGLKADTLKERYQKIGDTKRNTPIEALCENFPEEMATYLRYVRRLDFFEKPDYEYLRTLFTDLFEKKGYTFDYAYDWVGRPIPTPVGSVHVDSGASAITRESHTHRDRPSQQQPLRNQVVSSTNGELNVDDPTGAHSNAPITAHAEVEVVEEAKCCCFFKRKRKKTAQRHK
Sequence of TGFBR2 (P37173 whole entry): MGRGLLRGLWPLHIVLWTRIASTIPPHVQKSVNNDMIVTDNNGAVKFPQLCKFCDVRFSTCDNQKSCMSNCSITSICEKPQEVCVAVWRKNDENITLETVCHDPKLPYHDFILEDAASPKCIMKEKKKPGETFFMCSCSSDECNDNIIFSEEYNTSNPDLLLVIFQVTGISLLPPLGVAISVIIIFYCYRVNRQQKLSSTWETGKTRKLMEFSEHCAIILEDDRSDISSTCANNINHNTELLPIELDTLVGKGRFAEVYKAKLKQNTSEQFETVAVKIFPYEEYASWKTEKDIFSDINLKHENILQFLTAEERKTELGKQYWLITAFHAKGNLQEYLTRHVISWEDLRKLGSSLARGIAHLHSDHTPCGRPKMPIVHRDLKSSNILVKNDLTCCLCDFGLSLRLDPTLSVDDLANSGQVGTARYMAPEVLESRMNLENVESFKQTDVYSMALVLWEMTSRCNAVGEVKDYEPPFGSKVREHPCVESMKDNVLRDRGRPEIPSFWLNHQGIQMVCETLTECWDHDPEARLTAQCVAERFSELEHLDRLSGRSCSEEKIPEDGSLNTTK
Sequence of LIMK2 (P53671 whole entry): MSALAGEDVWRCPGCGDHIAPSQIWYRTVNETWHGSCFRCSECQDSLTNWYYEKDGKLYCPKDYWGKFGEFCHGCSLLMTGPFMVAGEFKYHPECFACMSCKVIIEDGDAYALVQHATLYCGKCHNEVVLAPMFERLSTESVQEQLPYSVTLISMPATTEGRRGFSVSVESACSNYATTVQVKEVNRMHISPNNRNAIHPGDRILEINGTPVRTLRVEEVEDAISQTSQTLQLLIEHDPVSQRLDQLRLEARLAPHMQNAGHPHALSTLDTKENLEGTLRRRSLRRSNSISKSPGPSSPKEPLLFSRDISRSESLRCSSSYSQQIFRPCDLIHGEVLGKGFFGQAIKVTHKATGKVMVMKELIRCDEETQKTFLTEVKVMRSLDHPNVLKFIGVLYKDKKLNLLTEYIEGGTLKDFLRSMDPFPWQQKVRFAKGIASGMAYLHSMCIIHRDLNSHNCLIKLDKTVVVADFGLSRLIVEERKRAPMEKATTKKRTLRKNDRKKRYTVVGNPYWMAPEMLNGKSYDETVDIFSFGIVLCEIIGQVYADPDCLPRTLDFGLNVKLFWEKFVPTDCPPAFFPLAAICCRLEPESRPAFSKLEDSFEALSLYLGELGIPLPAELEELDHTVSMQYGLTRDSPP
Sequence of FYN (P06241 whole entry): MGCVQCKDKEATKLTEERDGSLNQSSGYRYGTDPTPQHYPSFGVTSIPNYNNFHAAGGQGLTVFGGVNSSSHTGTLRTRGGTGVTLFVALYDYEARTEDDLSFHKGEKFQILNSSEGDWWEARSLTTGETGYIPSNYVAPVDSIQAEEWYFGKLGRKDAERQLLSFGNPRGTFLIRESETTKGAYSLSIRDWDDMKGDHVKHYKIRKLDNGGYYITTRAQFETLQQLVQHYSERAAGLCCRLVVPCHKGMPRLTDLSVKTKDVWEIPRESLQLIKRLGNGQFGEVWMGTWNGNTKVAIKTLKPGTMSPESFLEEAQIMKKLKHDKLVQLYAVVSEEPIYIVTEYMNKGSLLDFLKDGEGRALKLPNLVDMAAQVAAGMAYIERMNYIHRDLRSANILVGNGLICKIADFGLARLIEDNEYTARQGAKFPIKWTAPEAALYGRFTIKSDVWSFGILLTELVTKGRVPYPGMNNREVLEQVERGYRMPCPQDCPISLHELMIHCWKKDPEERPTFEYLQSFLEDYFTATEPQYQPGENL
T3 sequence (Q9H093 whole entry): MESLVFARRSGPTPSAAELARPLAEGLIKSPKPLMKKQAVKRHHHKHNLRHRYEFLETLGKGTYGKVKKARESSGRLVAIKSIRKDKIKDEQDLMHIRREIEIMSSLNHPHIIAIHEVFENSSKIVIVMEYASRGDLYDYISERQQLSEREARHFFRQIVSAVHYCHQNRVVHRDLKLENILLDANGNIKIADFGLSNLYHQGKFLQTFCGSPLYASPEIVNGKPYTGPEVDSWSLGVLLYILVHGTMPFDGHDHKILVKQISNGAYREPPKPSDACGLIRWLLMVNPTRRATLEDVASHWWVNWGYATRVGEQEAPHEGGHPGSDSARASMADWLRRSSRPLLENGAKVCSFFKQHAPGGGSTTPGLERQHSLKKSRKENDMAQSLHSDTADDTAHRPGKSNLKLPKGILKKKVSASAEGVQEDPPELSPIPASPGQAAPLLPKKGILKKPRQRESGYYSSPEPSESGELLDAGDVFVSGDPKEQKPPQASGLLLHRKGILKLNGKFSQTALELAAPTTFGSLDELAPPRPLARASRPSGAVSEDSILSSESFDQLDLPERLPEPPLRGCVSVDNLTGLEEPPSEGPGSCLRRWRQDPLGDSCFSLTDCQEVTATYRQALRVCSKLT

Cn1c(=O)[nH]c2ccc(-c3cccc(C(=O)NC4CCn5ccnc5C4)c3)cc21 (stereo not shown) [Z36-MP5] showed a remaining binding at 1 µM [1] of 100%, a remaining binding at 1 µM [2] of 84% and a remaining binding at 1 µM [3] of 90%. For the same compound, the remaining binding at 1 µM [4] was 68%, the remaining binding at 1 µM [5] was 63% and the remaining binding at 1 µM [6] was 93%. For the same compound, the remaining binding at 1 µM [7] was 100%, the remaining binding at 1 µM [8] was 99% and the remaining binding at 1 µM [9] was 66%. For the same compound, the remaining binding at 1 µM [10] was 100%, the remaining binding at 1 µM [11] was 91% and the remaining binding at 1 µM [12] was 64%. It also gave a remaining binding at 1 µM [13] of 55%, a remaining binding at 1 µM [14] of 75% and a remaining binding at 1 µM [15] of 54%. It also gave a remaining binding at 1 µM [16] of 87%, a remaining binding at 1 µM [17] of 69% and a remaining binding at 1 µM [18] of 100%. For the same compound, the remaining binding at 1 µM [19] was 36%, the remaining binding at 1 µM [20] was 69% and the remaining binding at 1 µM [21] was 96%. The remaining binding at 1 µM [22] was 79%, the remaining binding at 1 µM [23] was 99% and the remaining binding at 1 µM [24] was 94%. It also gave a remaining binding at 1 µM [25] of 81%.

From publication PMC10924921, “Mi-2β promotes immune evasion in melanoma by activating EZH2 methylation” (Nature Communications, 2024)
